Reference: patent US8530646B2, “Oxazolidinone derivative having 7-membered hetero ring” (Research Foundation Itsuu Laboratory, priority 2007, dated 2013)

Key:
Experiment in all cases: MIC determination by CLSI standard method (broth dilution, Mueller Hinton Broth)
Format in all cases: cell-based
Conditions in all cases: cation-adjusted Mueller Hinton Broth, inoculum about 5×10^5 CFU/mL, read-out: Minimal inhibitory concentration (MIC)
[1] = tested on: VISA (vancomycin-intermediate Staphylococcus aureus)
Description: (§1) The compounds of the invention were tested for antimicrobial activity.
(§2) Minimal inhibitory concentration (MIC: μg/ml) against different strains of bacteria was determined according to the standard method recommended by CLSI (clinical and laboratory standards institute). Samples were prepared by dissolving a test compound solution into DMSO (1280 μg/mL), followed by two fold dilution with DMSO. The sample was added to a bacteria suspension at the concentration of 5%, and MIC was determined. Mueller Hinton Broth was adjusted for cation concentration and used as a culture media. The inoculation concentration was about 5×10^5 CFU/mL.

[2] = tested on: VRE (vancomycin resistance enterococcus)
Description: as §1, §2

[3] = tested on: MRSA (methicillin-resistant Staphylococcus aureus)
Description: as §1, §2

[4] = tested on: PRSP (penicillin resistant Streptococcus pneumoniae)
Description: as §1, §2

Measured: MIC

CC(=S)NC[C@H]1CN(c2cc(F)c(N3CCON(C(=O)c4ccccc4O)CC3)c(F)c2)C(=O)O1 [Example B38]
≤ 1 µg/mL: [1] | [2] | [3] | [4]

COC(=S)NC[C@H]1CN(c2ccc(N3CCNN(C(=O)Cn4cc(Cl)cn4)CC3)c(F)c2)C(=O)O1 [Example A91]
≤ 1 µg/mL: [1] | [2] | [3] | [4]
